# Results published in US9855310B2, “Coix seed oil containing 8 triglycerides, and pharmaceutical preparation and use thereof” (ZHEJIANG KANGLAITE GROUP CO., LTD., priority 2014, dated 2018).
# Structures can show the parent of a compound that is named as a salt. Marks after values point to notes of the source that are not given here.
# Columns and labels:
# QGY human hepatoma = assay: Growth of QGY human hepatoma transplanted in nude mice; settings: ip × 7qd
# Description: A549 Human lung cancer cells cryopreserved in liquid nitrogen were recovered, and incubated in a 37 incubator under 5% CO2. After being subcultured, cells in a logarithmic growth stage were distributed with normal saline to be a cell suspension in a concentration of 1-2×10^7 cells/ml. The cell suspension was inoculated into BALB/C nude mice (SPF grade, 18-20 g, 6 weeks old, male) subcutaneously at right axillary. The tumor tissues were aseptically taken from the 2nd generation of xenograft model of A549 human lung cancer in a vigorous growth stage and cut into small uniform pieces in the size of 1-2 mm^3. The right axillary of each nude mouse was inoculated one piece subcutaneously via a trocar. When the inoculated tumor could be touched, the mice were randomly grouped and administered according to the experimental design program. All contacted feed, padding, cages and equipment, etc., should be autoclaved prior to use. The nude mice were fed in a laminar flow rack. Tumor sizes and animal weights were observed and tested dynamically. Mice in each group were sacrificed 3 weeks later or so, and tumors were surgically removed and weighed.
# (§2) Q value of antitumor effect in drug combination was calculated according to Jin's formula: Q=Ea+b/(Ea+Eb−Ea×Eb) Wherein Ea+b=the tumor inhibition rate of drug combination, Ea or Eb=the tumor inhibition rate of drug A or drug B, respectively.
# QGY human hepatoma cells cryopreserved in liquid nitrogen were recovered, and incubated in a 37 incubator under 5% CO2.
# A549 human lung cancer = assay: Growth of A549 human lung cancer transplanted in nude mice; assay type: in vivo, BALB/C nude mice; settings: ip × 7qd
# Description: The injection of the invention (10 g/100 ml), Cisplatin (Qilu Pharmaceutical Co., Ltd), blank fat emulsion and normal saline
# S180 sarcoma = S180 sarcoma transplanted in mice; assay type: in vivo, Kunmin mice; settings: ip × 2(1, 3)
# Description: The injection of the invention (10 g/100 ml), Cyclophosphamide (CTX), Mitoxantrone (DHAD), Mitomycin (MMC) and normal saline
# Each mouse was inoculated with 0.2 ml of the suspension subcutaneously at the right axilla, and the mice were grouped randomly. The administration began from the next day according to the dosage program in Table 7. […] Weights of tumor were compared and inhibition rates were calculated for each group.
# [1] = test system: Bcap-37 human breast cancer; assay: Bcap-37 human breast cancer transplanted in nude mice; assay type: in vivo, BALB/C nude mice; settings: 25 mg/kg, ip × 1
# Description: The injection of the invention (10 g/100 ml), Docetaxel injection (Taxotere, 20 mg/vial) and normal saline
# Bcap-37 human breast cancer: inoculated in BALB/C nude mice (SPF grade), 18-20 g, female
# Tumor blocks of well-grown Bcap-37 human breast cancer were homogenized in normal saline to obtain cell suspensions in the concentration of 1-2×10^7 cells/ml. Each nude mouse was inoculated with 0.2 ml of the suspension at the right axilla subcutaneously, and the mice were grouped randomly. The administration began from the 7th day after the inoculation. 20 Days after the inoculation, the mice were sacrificed. Tumor blocks were taken out and weighed. Differences of tumor weight between each experimental group and the control group were compared, and tumor inhibition rates and Q values were calculated.
# [2] = test system: PANC-1 human pancreatic cancer; assay: PANC-1 human pancreatic cancer transplanted in nude mice; assay type: in vivo, BALB/C nude mice; settings: 60 mg/kg, iv × 1
# Description: as §2
# Tumor blocks of well-grown PANC-1 human pancreatic cancer were inoculated subcutaneously in 4-week-old female BALB/C nude mice. The nude mice were grouped randomly and administered. One week after the end of the administration, the mice were sacrificed and dissected. Tumor blocks were taken out and weighed. Differences of tumor weight between each experimental group and the control group were compared and the tumor inhibition rates were calculated.
# [3] = test system: FC-3M human prostate cancer; assay: FC-3M human prostate cancer transplanted in nude mice; assay type: in vivo, BALB/C nude mice; settings: iv × 1
# Description: The injection of the invention (10 g/100 ml), Leuprolide acetate (Lupron) and normal saline
# Tumor blocks of well-grown FC-3M human prostate cancer were homogenized in normal saline (1:4). Each nude mouse was inoculated with 0.2 ml of the suspension at the right axilla subcutaneously, and the mice were grouped randomly. The administration began from the next day. 21 Days after the inoculation, the mice were sacrificed. Tumor blocks were taken out and weighed. Differences of tumor weight between each experimental group and the control group were compared and the tumor inhibition rates were calculated.
# [4] = test system: A549 (human lung cancer cells); assay: Inhibition on human tumor cell lines in MTT method in vitro; assay type: cell-based
# Text: (§1) (1) Cell lines: PANC-1 (human pancreatic cancer cells), SKOV3 (human ovarian cancer cells), MCF-7 (human breast cancer cells), Bcap-37 (human breast cancer cells), SMMC-7721 (human hepatic cancer cells), HepG-2 (human hepatic cancer cells), A549 (human lung cancer cells) and H460 (human lung cancer cells), storaged and passaged maintainably in Research and Evaluation Center for Pharmacology, Shanghai Institute of Pharmaceutical Industry; The inhibition effects of samples on the above-mentioned cell lines were detected by using MTT method. The specific procedures were as follows: (1) Cell culture: (a) Storaged cells were taken out from the liquid nitrogen, thawed quickly in a 37 water bath, then aseptically transferred into 6 ml of cellular medium in a 10 ml centrifugal tube, and centrifuged at 1000 rpm for 5 min. The supernatant was discarded, then the precipitated cells were re-suspensed in 5-6 ml cellular media by pipetting and transferred into a flask in a 37 incubator for cell culture; (b) Next day, the flask was taken out from the incubator and the used medium was discarded, then the cells were incubated in 5-6 ml fresh medium in the 37 incubator; (c) On the third day, the flask was taken out from the incubator and the used medium was discarded, then 2-3 ml of PBS (pH7.4) was added into the flask with rocking for cleaning it and the used PBS was discarded. […] The flask was capped and placed in a 37 incubator for about 3 min, and the separation of cells from the flask wall was observed under the microscope. 2 ml of cellular medium was added and cells were separated completely from the flask wall by pipetting, then the cell suspension was transferred into 2 separate clean flasks, each containing 5-6 ml medium. The cell suspension was well-distributed by pipetting, then the flask was placed in a 37 incubator. (d) Step (c) was repeated every other day. In the whole cultivation process, adherent cells were not allowed to grow too dense and suspension cells were always maintained at a logarithmic growth stage. (2) Preparation of the sample and the control: A proper amount of sample of Coix seed oil (oil of Job's tears seed) was dissolved in DMSO to obtain a solution in a concentration of 10 mg/ml. […] The correspondingly diluted DMSO solutions, as controls, were added into the wells of the microplate. (4) Cells in a logarithmic growth stage were trypsinized and washed, then re-suspended in the medium containing 10% calf serum. The number of living cells was counted in Trypan blue dye exclusion method and cell suspensions were adjusted into a density of 2×10^5 cell/ml. (5) The cell-contained 96 well flat-bottom microplate was placed in a 37 incubator and cells were incubated under 5% CO2 for 48 h. (6) 20 μl of 5 mg/ml MTT solution was added into each well and cells were incubated continuously in the incubator for 3-4 h. (7) 100 μl of crystal dissolving solution was added into each well and cells were incubated continuously in the incubator overnight, so as to dissolve the resulted formazan crystals sufficiently. Then, the absorbance value was measured at 570 nm for each well. […] The calculation formula was as follows: (1−mean absorbance of experimental wells/mean absorbance of control wells)×100%
# [5] = test system: Bcap-37 (human breast cancer cells); assay: as above; assay type: cell-based; settings: Bcap37
# Text: as §1
# [6] = test system: H460 (human lung cancer cells); assay: as above; assay type: cell-based; settings: NCI-H460
# Text: as §1
# [7] = test system: HepG-2 (human hepatic cancer cells); assay: as above; assay type: cell-based; settings: HepG2
# Text: as §1
# [8] = test system: MCF-7 (human breast cancer cells); assay: as above; assay type: cell-based; settings: MCF7
# Text: as §1
# [9] = test system: PANC-1 (human pancreatic cancer cells); assay: as above; assay type: cell-based
# Text: as §1
# [10] = test system: SKOV3 (human ovarian cancer cells); assay: as above; assay type: cell-based; settings: SK-OV-3
# Text: as §1
# [11] = test system: SMMC-7721 (human hepatic cancer cells); assay: as above; assay type: cell-based
# Text: as §1
# [12] = test system: MDA-MB-435 human breast cancer; assay: MDA-MB-435 human breast cancer transplanted in nude mice; assay type: in vivo, BALB/C nude mice; settings: 50 mg/kg, ip × 1
# Description: Each nude mouse was inoculated with 0.2 ml of the suspension at the right axilla subcutaneously, and the mice were grouped randomly. The administration began from the 7th day after the inoculation. 18 Days after the inoculation, the mice were sacrificed. Tumor blocks were taken out and weighed. Differences of tumor weight between each experimental group and the control group were compared, and tumor inhibition rates and Q values were calculated.
# W256 cancer sarcoma = W256 cancer sarcoma transplanted in rats; assay type: in vivo, Wistar rats
# Description: The injection of the invention (10 g/100 ml), Cyclophosphamide (CTX) and normal saline
# W256 cancer sarcoma: inoculated in Wistar rats, 50-60 g, female
# Ascitic fluid of rats with well-grown W256 cancer sarcoma was diluted with normal saline to obtain a cell suspension of about 1-2×10^7 cells/ml. Each rat was inoculated with 0.2 ml of the suspension at the right axilla subcutaneously. The rats were grouped randomly next day and began administration. Two weeks later, animals were sacrificed and dissected to take out the tumor block. Weights of tumor were compared between each experimental group and the control group and tumor inhibition rates were calculated.
# LM-3 human hepatoma = LM-3 human hepatoma transplanted in nude mice; settings: ip × 7qd
# Description: When the inoculated tumor could be touched, the mice were randomly grouped and administered according to the experimental design program. All contacted feed, padding, cages and equipment, etc., should be autoclaved prior to use. The nude mice were fed in a laminar flow rack. Tumor sizes and animal weights were observed and tested dynamically. Mice in each group were sacrificed 3 weeks later or so, and tumors were surgically removed and weighed.
# LM-3 human hepatoma cells cryopreserved in liquid nitrogen were recovered, and incubated in a 37 incubator under 5% CO2. Other steps were the same as mentioned in 2-B.
smiles,measurement,setting,value
COc1cccc2c1C(=O)c1c(O)c3c(c(O)c1C2=O)C[C@@](O)(C(=O)CO)C[C@@H]3O[C@H]1C[C@H](N)[C@H](O)[C@H](C)O1 [Adriamycin],Inhibition rate %,QGY human hepatoma; 1 mg/kg,35.48%
same,Weight of animal start/end: end,QGY human hepatoma; 1 mg/kg,24.5
same,Weight of animal start/end: start,QGY human hepatoma; 1 mg/kg,21.5
same,Weight of tumor (g) x ± SD,QGY human hepatoma; 1 mg/kg,0.742 ± 0.19 g
same,Inhibition rate %,QGY human hepatoma; 2 mg/kg,68.87%
same,Weight of animal start/end: end,QGY human hepatoma; 2 mg/kg,23.2
same,Weight of tumor (g) x ± SD,QGY human hepatoma; 2 mg/kg,0.358 ± 0.12 g
N.N.[Cl][Pt][Cl] [Cisplatin],Inhibition rate %,A549 human lung cancer; 1 mg/kg,41.07%
same,Weight of animal (g) start/end: end,A549 human lung cancer; 1 mg/kg,24.5 g
same,Weight of animal (g) start/end: start,A549 human lung cancer; 1 mg/kg,20.3 g
same,Weight of tumor (g) x ± SD,A549 human lung cancer; 1 mg/kg,0.772 ± 0.15 g
same,Inhibition rate %,A549 human lung cancer; 2 mg/kg,86.03%
same,Weight of animal (g) start/end: end,A549 human lung cancer; 2 mg/kg,23.6 g
same,Weight of animal (g) start/end: start,A549 human lung cancer; 2 mg/kg,20.3 g
same,Weight of tumor (g) x ± SD,A549 human lung cancer; 2 mg/kg,0.183 ± 0.05 g
"O=C1c2c(O)ccc(O)c2C(=O)c2c(NCCNCCO)ccc(NCCNCCO)c21 [DHAD, Mitoxantrone]",Inhibition rate %,S180 sarcoma; 2 mg/kg,51.0%
same,Weight of tumor (g) x ± SD,S180 sarcoma; 2 mg/kg,0.77 ± 0.19 g
CC(=O)O[C@@]12CO[C@@H]1C[C@H](O)[C@@]1(C)C(=O)[C@H](O)C3=C(C)[C@@H](OC(=O)[C@H](O)[C@@H](NC(=O)OC(C)(C)C)c4ccccc4)C[C@@](O)([C@@H](OC(=O)c4ccccc4)[C@H]21)C3(C)C [Docetaxel],Inhibition rate %,[1],56.80%
same,Weight of tumor (g) x ± SD,[1],1.27 ± 0.88 g
"Nc1ccn([C@@H]2O[C@H](CO)[C@@H](O)C2(F)F)c(=O)n1 [Gemcitabine, gemcitabine hydrochloride]",Inhibition rate %,[2],23.04%
same,Weight of tumor (g) x ± SD,[2],0.1426 ± 0.078 g
"CCNC(=O)[C@@H]1CCCN1C(=O)[C@H](CCCNC(=N)N)NC(=O)[C@H](CC(C)C)NC(=O)[C@@H](CC(C)C)NC(=O)[C@H](Cc1ccc(O)cc1)NC(=O)[C@H](CO)NC(=O)[C@H](Cc1c[nH]c2ccccc12)NC(=O)[C@H](Cc1c[nH]cn1)NC(=O)[C@@H]1CCC(=O)N1 [Lupron, Leuprolide acetate]",Inhibition rate %,[3]; 0.75 ml/kg,35.1%
same,Weight of tumor (g) x ± SD,[3]; 0.75 ml/kg,0.98 ± 0.26 g
same,Inhibition rate %,[3]; 1.5 ml/kg,47.68%
same,Weight of tumor (g) x ± SD,[3]; 1.5 ml/kg,0.79 ± 0.16 g
"CO[C@@]12[C@H](COC(N)=O)C3=C(C(=O)C(C)=C(N)C3=O)N1C[C@@H]1N[C@@H]12 [MMC, Mitomycin]",Inhibition rate %,S180 sarcoma; 1.5 mg/kg,39.5%
same,Weight of tumor (g) x ± SD,S180 sarcoma; 1.5 mg/kg,0.95 ± 0.16 g
"CC(=O)O[C@H]1C(=O)[C@@]2(C)[C@H]([C@H](OC(=O)c3ccccc3)[C@]3(O)C[C@H](OC(=O)[C@H](O)[C@@H](NC(=O)c4ccccc4)c4ccccc4)C(C)=C1C3(C)C)[C@]1(OC(C)=O)CO[C@@H]1C[C@@H]2O [Taxol, Paclitaxel]",IC50,[4],0.46 µg/mL
same,IC50,[5],0.28 µg/mL
same,IC50,[6],0.49 µg/mL
same,IC50,[7],0.45 µg/mL
same,IC50,[8],0.18 µg/mL
same,IC50,[9],0.44 µg/mL
same,IC50,[10],0.22 µg/mL
same,IC50,[11],0.41 µg/mL
same,Inhibition rate %,[12],62.87%
"O=P1(N(CCCl)CCCl)NCCCO1 (centres unmarked) [cyclophosphamide, Cyclophosphamide]",Weight of tumor (g) x ± SD,S180 sarcoma; 30 mg/kg,0.95 ± 0.22 g
same,Inhibition rate %,"S180 sarcoma; 30 mg/kg, listed as CTX",39.5%
same,Weight of tumor (g) x ± SD,"W256 cancer sarcoma; 10 mg/kg, iv × 2(3, 5)",2.07 ± 1.11 g
same,Inhibition rate %,"W256 cancer sarcoma; 10 mg/kg, iv × 2(3, 5), listed as CTX",38.6%
same,Inhibition rate %,"W256 cancer sarcoma; 30 mg/kg, iv × 7",88.1** %
same,Weight of tumor (g) x ± SD,"W256 cancer sarcoma; 30 mg/kg, iv × 7",0.40 ± 0.15 g
same,Inhibition rate %,LM-3 human hepatoma; 15 mg/kg,27.21%
same,Weight of animal start/end: end,LM-3 human hepatoma; 15 mg/kg,25.1
same,Weight of animal start/end: start,LM-3 human hepatoma; 15 mg/kg,20.6
same,Weight of tumor (g) x ± SD,LM-3 human hepatoma; 15 mg/kg,1.110 ± 0.11 g
same,Inhibition rate %,LM-3 human hepatoma; 30 mg/kg,84.13%
same,Weight of animal start/end: end,LM-3 human hepatoma; 30 mg/kg,25.6
same,Weight of animal start/end: start,LM-3 human hepatoma; 30 mg/kg,20.4
same,Weight of tumor (g) x ± SD,LM-3 human hepatoma; 30 mg/kg,0.242 ± 0.11 g
